IC50 data for 18 molecules are collected here from US11208400B2, “Substituted 6-(1H-pyrazol-1-yl)pyrimidin-4-amine derivatives and uses thereof” (Bayer Aktiengesellschaft, priority 2016, dated 2021).

The target of the test is T1, human Npt2a (Homo sapiens, UniProt Q06495).
T1 construct: expressed in transfected cells
T1 sequence (Q06495 1-639): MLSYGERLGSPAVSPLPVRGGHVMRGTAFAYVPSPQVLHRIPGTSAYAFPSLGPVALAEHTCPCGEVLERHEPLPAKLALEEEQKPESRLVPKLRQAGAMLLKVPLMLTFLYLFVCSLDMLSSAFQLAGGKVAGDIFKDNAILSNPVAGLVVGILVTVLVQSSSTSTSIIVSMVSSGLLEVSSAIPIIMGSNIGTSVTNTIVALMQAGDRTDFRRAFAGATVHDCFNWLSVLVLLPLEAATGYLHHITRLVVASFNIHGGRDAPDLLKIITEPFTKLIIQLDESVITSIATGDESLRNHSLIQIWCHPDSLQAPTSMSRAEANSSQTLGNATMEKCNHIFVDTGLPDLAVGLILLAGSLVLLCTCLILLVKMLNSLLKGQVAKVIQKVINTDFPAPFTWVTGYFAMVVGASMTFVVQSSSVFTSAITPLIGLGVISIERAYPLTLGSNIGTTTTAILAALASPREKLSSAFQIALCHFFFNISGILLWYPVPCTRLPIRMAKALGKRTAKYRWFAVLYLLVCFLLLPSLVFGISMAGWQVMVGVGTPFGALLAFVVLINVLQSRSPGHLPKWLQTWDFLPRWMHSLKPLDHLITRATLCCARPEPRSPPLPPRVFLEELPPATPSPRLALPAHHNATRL
In words: Npt2a activity cell based assay, membrane potential dye, CHO T-REx hNpt2a cells. The note with it: doxycycline-induced, depolarization by sodium phosphate influx, average or median values if tested more than once. The protocol:
For measuring Npt2a activity in a cell based assay, a stable CHO cell line with inducible Npt2a expression was generated. Therefore, CHO T-Rex cells (life technologies cat. R718-07) were stably transfected with doxycycline-inducible human NPT2a (pcDNA5TO-hNpt2a). The obtained CHO T-REx hNpt2a cells were routinely cultured in Dulbecco's MEM/F12 (4.5 g/l Glucose, Gibco cat. 21331-020; 500 mL) supplemented with 10 ml Glutamax 100×, Sodium pyruvate (7 mL of 100 mM solution), HEPES (10 mL of 1 M solution), Sodium bicarbonate (10 mL of 7.5% solution), 10% Fetal Bovine Serum Tetracycline free (Clontech cat. 631106, 500 ml), Penicillin-Streptomycin (5 mL of 100× Solution), Blasticidin 10 μg/mL and 400 μg/mL Hygromycin.
Activity of Npt2a was detected by following depolarization of cellular membrane potential by influx of sodium phosphate using fluorescent membrane potential dye kit BLUE (Molecular devices cat. R8034). For Npt2a activity measurements, CHO T-Rex hNpt2a cells were seeded into 1536 well microtiter plates (GREINER Bio-One cat. 782092) with 750 cells/well in 7 μL/w of complete medium (2% Tetracycline-free FBS, 2% Poly-D-Lysine) without selective agents+Doxycycline 0.5 μg/mL to induce Npt2a gene expression, and grown for 24 h at 37° C., 5% carbon dioxide.
On the day of experiment a 1×MPdye Loading Solution was freshly prepared by re-suspending 15 mg of Blue MPdye powder in 10 mL of NHE buffer sodium-free (140 mM N-Methyl-D-glucamine, 5.4 mM KCl, 1 mM CaCl2, 11 mM D(±)-Glucose water free, 1.2 mM MgCl2, 10 mM HEPES; pH 7.4 (adjusted with hydrochloric acid); sterile filtered). 5 μl medium was removed from plates by robotic manipulation, then 5 μL/well of sodium-free NHE buffer was added. After incubation for 2 min, this washing step was repeated once. Then, 5 μL/w of buffer was removed from plates and cells were incubated for 5 min at room temperature with 5 μL/w of MPdye Loading Solution (1× in Sodium-free NHE Buffer). Test compounds were added to the cells at final test concentrations between 50 μM and 1 nM (0.6 μL/well, final DMSO 0.6%, prepared in MPDye Loading Solution) and incubated for 5 min at room temperature.
Plates were analyzed with an in house CCD camera device using a λexc 510-545 nm/λem 565-625 nm filter. Fluorescence was detected for 15 sec (background measurement M1). Activity of Npt2a was triggered by addition of 2 μL/well of 30 mM Na+ and 1 mM phosphate (prepared in a mixture of NHE Buffer Na+ free and NHE Buffer 140 mM Na+). Fluorescence was followed for 2-3 min (depolarization measurement M2). Data was normalized to cell number and dye loading efficiency by calculating M2/M1. This quotient was plotted against test compound concentration. Graph Pad Prism or equivalent in house software was used to create sigmoidal dose-response curves (variable slope) and determine IC50 values.
For `CCc1c(Nc2cc(-n3nc(C)c(C(=O)N4CC(C)OC(C)C4)c3C)ncn2)nn(C)c1-c1ccc(F)cc1` (racemic) [Example 74, (±)-[syn-2,6-dimethylmorpholin-4-yl][1-(6-{[4-ethyl-5-(4-fluorophenyl)-1-methyl-1H-pyrazol-3-yl]amino}pyrimidin-4-yl)-3,5-dimethyl-1H-pyrazol-4-yl]methanone], the IC50 (usually the concentration at which inhibition is half-maximal) came out at 1260 nM.

For the molecule `CCc1c(Nc2cc(-n3nc(C)c(C(=O)N4CCCC4C)c3C)ncn2)nn(C)c1-c1ccc(F)cc1` (racemic) [Example 76, (±)-[1-(6-{[4-ethyl-5-(4-fluorophenyl)-1-methyl-1H-pyrazol-3-yl]amino}pyrimidin-4-yl)-3,5-dimethyl-1H-pyrazol-4-yl](2-methylpyrrolidin-1-yl)methanone], 190 nM corresponded to half-maximal inhibition (IC50).

`CCc1c(Nc2cc(-n3nc(C)c4c3CCCC4(C)O)ncn2)nn(C)c1-c1ccc(F)cc1` (racemic) [Example 134, (±)-1-(6-{[4-ethyl-5-(4-fluorophenyl)-1-methyl-1H-pyrazol-3-yl]amino}pyrimidin-4-yl)-3,4-dimethyl-4,5,6,7-tetrahydro-1H-indazol-4-ol (Racemate)]: half-maximal inhibition (IC50) required 180 nM.

In turn, `CCc1c(Nc2cc(-n3nc(C)c4c3CCC4(C)O)ncn2)nn(C)c1-c1ccc(F)cc1` (racemic) [Example 146, (rac)-1-(6-{[4-ethyl-5-(4-fluorophenyl)-1-methyl-1H-pyrazol-3-yl]amino}pyrimidin-4-yl)-3,4-dimethyl-1,4,5,6-tetrahydrocyclopenta[c]pyrazol-4-ol] registered an IC50 of 126 nM.

For `Cc1nn(-c2cc(Nc3c(C)c(-c4ccc(C#N)cc4)nn3C)ncn2)c2c1C(C)(O)CC2` (racemic) [Example 227, 4-[5-({6-[(±)-4-hydroxy-3,4-dimethyl-5,6-dihydrocyclopenta[c]pyrazol-1(4H)-yl]pyrimidin-4-yl}amino)-1,4-dimethyl-1H-pyrazol-3-yl]benzonitrile], the IC50 came out at 16 nM.

In turn, `Cc1nn(-c2cc(Nc3c(C)c(-c4ccc(F)cc4)nn3CC3CC3)ncn2)c(C)c1C(C)O` (racemic) [Example 249, (±)-1-[1-(6-{[1-(cyclopropylmethyl)-3-(4-fluorophenyl)-4-methyl-1H-pyrazol-5-yl]amino}pyrimidin-4-yl)-3,5-dimethyl-1H-pyrazol-4-yl]ethanol] gave an IC50 of 22 nM.

As to `CCC(O)c1c(C)nn(-c2cc(Nc3c(C)c(-c4ccc(F)cc4)nn3CC3CC3)ncn2)c1C` (racemic) [Example 280, (±)-1-[1-(6-{[1-(cyclopropylmethyl)-3-(4-fluorophenyl)-4-methyl-1H-pyrazol-5-yl]amino}pyrimidin-4-yl)-3,5-dimethyl-1H-pyrazol-4-yl]propan-1-ol (Racemic)], the 50% inhibitory concentration (IC50) was 16 nM.

Molecule `Cc1nn(-c2cc(Nc3c(C)c(-c4ccc(F)cc4)nn3CC3CC3)ncn2)c2c1C(C)(O)CC2` (racemic) [Example 283, (±)-1-(6-{[1-(cyclopropylmethyl)-3-(4-fluorophenyl)-4-methyl-1H-pyrazol-5-yl]amino}pyrimidin-4-yl)-3,4-dimethyl-1,4,5,6-tetrahydrocyclopenta[c]pyrazol-4-ol (Racemate)] showed an IC50 of 21 nM.

The molecule `Cc1nn(-c2cc(Nc3c(C)c(-c4ccc(C#N)cc4)nn3CC3CC3)ncn2)c(C)c1C(C)(O)C(F)(F)F` (racemic) [Example 322, (±)-4-{1-(cyclopropylmethyl)-5-[(6-{3,5-dimethyl-4-[(2S)-1,1,1-trifluoro-2-hydroxypropan-2-yl]-1H-pyrazol-1-yl}pyrimidin-4-yl)amino]-4-methyl-1H-pyrazol-3-yl}benzonitrile (Racemate)] showed an IC50 of 4 nM.

`Cc1cc(C)n(-c2cc(Nc3c(C)c(-c4ccc(F)cc4)nn3CC(C)(O)C3CC3)ncn2)n1` (racemic) [Example 325, (±)-2-cyclopropyl-1-[5-{[6-(3,5-dimethyl-1H-pyrazol-1-yl)pyrimidin-4-yl]amino}-3-(4-fluorophenyl)-4-methyl-1H-pyrazol-1-yl]propan-2-ol (Racemate)] yielded an IC50 of 1100 nM.

With `COC(C)c1c(C)nn(-c2cc(Nc3c(C)c(-c4ccc(F)cc4)nn3CC3CC3)ncn2)c1C` (racemic) [Example 326, (±)-N-[1-(cyclopropylmethyl)-3-(4-fluorophenyl)-4-methyl-1H-pyrazol-5-yl]-6-{4-[1-methoxyethyl]-3,5-dimethyl-1H-pyrazol-1-yl}pyrimidin-4-amine (Racemic)], the 50% inhibitory concentration (IC50) worked out at 4 nM.

As to `COc1c(-c2ccc(C#N)cc2)nn(CC2CC2)c1Nc1cc(-n2nc(C)c(C(C)O)c2C)ncn1` (racemic) [Example 331, (±)-4-{1-(cyclopropylmethyl)-5-[(6-{4-[(1S)-1-hydroxyethyl]-3,5-dimethyl-1H-pyrazol-1-yl}pyrimidin-4-yl)amino]-4-methoxy-1H-pyrazol-3-yl}benzonitrile], half-maximal inhibition (IC50) was put at 2800 nM.

Turning to `COc1c(-c2ccc(C#N)cc2)nn(CC2CC2)c1Nc1cc(-n2nc(C)c(C(C)OC)c2C)ncn1` (racemic) [Example 333, (±)-4-{1-(cyclopropylmethyl)-4-methoxy-5-[(6-{4-[1-methoxyethyl]-3,5-dimethyl-1H-pyrazol-1-yl}pyrimidin-4-yl)amino]-1H-pyrazol-3-yl}benzonitrile], the IC50 was determined as 54 nM.

As for `COc1c(-c2ccc(F)cc2)nn(CC2CC2)c1Nc1cc(-n2nc(C)c(C(C)O)c2C)ncn1` (racemic) [Example 336, (±)-1-[1-(6-{[1-(cyclopropylmethyl)-3-(4-fluorophenyl)-4-methoxy-1H-pyrazol-5-yl]amino}pyrimidin-4-yl)-3,5-dimethyl-1H-pyrazol-4-yl]ethanol], the IC50 turned out to be 1650 nM.

For the molecule `COC(C)c1c(C)nn(-c2cc(Nc3c(C)c(-c4ccc(C#N)cc4)nn3C)ncn2)c1C` (racemic) [Example 338, (±)-4-{5-[(6-{4-[1-methoxyethyl]-3,5-dimethyl-1H-pyrazol-1-yl}pyrimidin-4-yl)amino]-1,4-dimethyl-1H-pyrazol-3-yl}benzonitrile], the IC50 was 7 nM.

Molecule `Cc1nn(-c2cc(Nc3c(C)c(-c4ccc(C#N)cc4)nn3CC3CC3)ncn2)c(C)c1C(C)O` (racemic) [Example 341, (±)-4-{1-(cyclopropylmethyl)-5-[(6-{4-[1-hydroxyethyl]-3,5-dimethyl-1H-pyrazol-1-yl}pyrimidin-4-yl)amino]-4-methyl-1H-pyrazol-3-yl}benzonitrile] showed an IC50 of 17 nM.

Consider `CCOC(C)c1c(C)nn(-c2cc(Nc3c(C)c(-c4ccc(C#N)cc4)nn3CC3CC3)ncn2)c1C` (racemic) [Example 342, (±)-4-{1-(cyclopropylmethyl)-5-[(6-{4-[1-ethoxyethyl]-3,5-dimethyl-1H-pyrazol-1-yl}pyrimidin-4-yl)amino]-4-methyl-1H-pyrazol-3-yl}benzonitrile], for which the IC50 came out at 2 nM.

Turning to `COC(C)c1c(C)nn(-c2cc(Nc3nn(C)c(-c4ccc(F)cc4)c3C)ncn2)c1C` (racemic) [Example 343, (±)-N-[5-(4-fluorophenyl)-1,4-dimethyl-1H-pyrazol-3-yl]-6-{4-[1-methoxyethyl]-3,5-dimethyl-1H-pyrazol-1-yl}pyrimidin-4-amine], half-maximal inhibition (IC50) was put at 6 nM.
